We go through four molecules from article PMC8111326 (Journal of Molecular Endocrinology, 2021).

Where a name gives a salt, the structure may show the parent alone. Read-outs that look alike come from different tables or passages of the source.

The subject of assay [1] is [Ca2+]i in HEK293 cells.
Assay [2] has as its system HEK293 cells.
The subject of assay [3] is transmitter release. Conditions: co-administered with calcium chelator BAPTA/AM; ref Di Virgilio et al. 1988; cited from earlier work.
Assay [4] concerns α-MSH-induced [Ca2+]i in HEK293 cells. Conditions: cited from earlier work.

For the molecule `C[C@H](CCC(=O)O)C[C@H](C)C[C@H](C)C(=O)/C=C(\O)[C@H](C)C[C@H](C)C/C=C/[C@@H](C)[C@@H](O)[C@@H](C)[C@@H](O)C[C@@H]1CC[C@@](C)([C@H]2CC[C@@](C)([C@@H](C)O)O2)O1` [ionomycin, ionomycin calcium salt], the “ionomycin effect on calcium signal” value in assay [1] (presence or absence of probenecid, ionomycin 10 µL of 0.33 mM stock in DMSO) was “rapid increase in calcium signal”.
Turning to `CCCN(CCC)S(=O)(=O)c1ccc(C(=O)O)cc1` [probenecid], in assay [2] (probenecid 1 mM vs 2.5 mM), the “retention of Fura-2 in cells” value is recorded as 1 mM probenecid worked as efficiently as 2.5 mM for Fura-2 retention. Besides, the “retention of Fura-2/AM and Fura-2 in cells” value in assay [2] (probenecid 2.5 mM, three independent experiments) was “retains Fura-2/AM and Fura-2 in HEK293 cell monolayers”. Also, the “interference with EGTA chelation of calcium” value in assay [1] (probenecid 1 mM in CLB-HG, Ca2+-free buffer-HG, -Ward or -Ion Optix, Supplementary Fig. 7) is “interfered with EGTA chelation of calcium”; in assay [1] (probenecid 0.5–2.5 mM, pluronic acid, Supplementary Fig. 5), “interferes with EGTA chelation of calcium”. In addition, in assay [3], the “effect on transmitter release” value was “profound and prolonged attenuation of transmitter release”.
Consider cholera toxin, for which the “effect on α-MSH-induced [Ca2+]i” value in assay [4] is on record as “significantly attenuated”.
With “ethylene glycol-bis (β-aminoethyl ether)-N,N,N′,N′-tetraacetic acid [EGTA]”, the “EGTA chelation of calcium in specific Rmin wells” value in assay [1] (EGTA 5.5 mM final, cells co-loaded with Fura-2/AM and 10 µM EGTA in DMEM, probenecid 1 mM in esterase buffer, three independent experiments) is “chelated calcium in the presence of either Ca^2+-free-HG buffer or Ca^2+-free-Ward buffer”. Besides, the “effect of EGTA injection on basal calcium signal, optimised assay conditions (with probenecid)” value in assay [1] (cell monolayers, EGTA 10 µL of 165 mM stock) was “did not reduce basal calcium signal”. In addition, the “EGTA effect on fluorescence ratio (340/380), specific Rmin wells” value in assay [1] (cells depleted of calcium by EGTA prior to imaging, calcium-free buffer) is recorded as “rapid small decrease in fluorescence 340/380 ratio”. For the same molecule, in assay [1] (in the presence of probenecid), the “EGTA effect on fluorescence ratio (340/380), with probenecid” value is “either has no effect on fluorescence ratio or increases the fluorescence ratio”.
